Results as given in the supplement of paper PMC8617591.

What was measured:
[1] = tested on: Mycobacterium tuberculosis Erdman (autoluminescent); test: Einf, fitted maximum growth inhibition of three-drug combination (fraction); higher = stronger maximal inhibition
Experimental: (§1)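 DiaMOND equipotent three-drug combination dose responses (10 doses, 1.5- or 2-fold spacing, centred on IC90) against autoluminescent M. tuberculosis Erdman in 8 in vitro models. Read-out is OD600, or luminescence for the intracellular and dormancy models, normalised to untreated wells. Hill-fit Einf, AUC25 and GRinf are potency metrics; FIC50 and FIC90 are total Loewe fractional inhibitory concentrations as log2 (negative = synergy).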

[2] = tested on: Mycobacterium tuberculosis Erdman (autoluminescent); test: GRinf, maximum normalised growth rate inhibition (three-drug combination) (unitless (-1 to 1)); higher = less effect (negative = killing)
Experimental: as §1

[3] = tested on: Mycobacterium tuberculosis Erdman (autoluminescent); test: total FIC90 (Loewe) at 90% inhibition, three-drug combination (log2); higher = more antagonistic
Experimental: as §1

[4] = tested on: Mycobacterium tuberculosis Erdman (autoluminescent); test: AUC25, normalised area under dose response up to IC25 (three-drug combination) (fraction (0-1)); higher = more potent at low dose
Experimental: as §1

[5] = tested on: Mycobacterium tuberculosis Erdman (autoluminescent); test: total FIC50 (Loewe) at 50% inhibition, three-drug combination (log2); higher = more antagonistic
Experimental: as §1

CC(C)/N=c1\cc2n(-c3ccc(Cl)cc3)c3ccccc3nc-2cc1Nc1ccc(Cl)cc1 [clofazimine] + CC(=O)NC[C@H]1CN(c2ccc(N3CCOCC3)c(F)c2)C(=O)O1 [linezolid] + O=[N+]([O-])c1cn2c(n1)OC[C@@H](OCc1ccc(OC(F)(F)F)cc1)C2 [pretomanid]
Conditions	AUC25, [4]	Einf, [1]	GRinf, [2]	total FIC50, [5]	total FIC90, [3]
in vitro model: acidic pH 5.7, time point: constant (~7 days, model-specific)	0.106	0.845	-0.45	0.0449	–
in vitro model: acidic pH 5.7, time point: terminal (~4-5 doublings, model-specific)	0.0757	0.964	-0.318	1.03	0.257
in vitro model: intracellular J774, time point: constant = terminal	–	0.996	-0.884	–	1.09

Conditions	AUC25, [4]	Einf, [1]	GRinf, [2]	total FIC50, [5]	total FIC90, [3]
in vitro model: butyrate, time point: constant (~7 days, model-specific)	0.124	0.962	-0.311	0.534	1.52
in vitro model: butyrate, time point: terminal (~4-5 doublings, model-specific)	0.0915	0.98	-0.185	0.691	1.09
in vitro model: cholesterol 0.05 mM, time point: constant (~7 days, model-specific)	0.133	0.677	-0.0316	-0.375	–
in vitro model: cholesterol 0.05 mM, time point: terminal (~4-5 doublings, model-specific)	0.136	0.918	-0.14	0.13	2.05
in vitro model: cholesterol-high 0.2 mM, time point: constant (~7 days, model-specific)	0.116	0.922	-0.441	0.0459	1.18
in vitro model: cholesterol-high 0.2 mM, time point: terminal (~4-5 doublings, model-specific)	0.123	1	-0.938	-0.122	0.391
in vitro model: dormancy (butyrate + nitrate, low O2), time point: constant (~7 days, model-specific)	0.0841	0.925	0.221	0.87	1.32
in vitro model: dormancy (butyrate + nitrate, low O2), time point: terminal (~4-5 doublings, model-specific)	0.0337	0.986	-0.216	0.422	0.0103
in vitro model: standard 7H9 glycerol, time point: constant = terminal	0.128	0.951	-0.277	0.0629	0.915
in vitro model: valerate, time point: constant (~7 days, model-specific)	0.14	0.85	-0.138	0.292	–
in vitro model: valerate, time point: terminal (~4-5 doublings, model-specific)	0.0928	0.892	0.125	0.0202	1.37

CC(C)/N=c1\cc2n(-c3ccc(Cl)cc3)c3ccccc3nc-2cc1Nc1ccc(Cl)cc1 [clofazimine] + CC[C@@H](CO)NCCN[C@@H](CC)CO [ethambutol] + CC(=O)NC[C@H]1CN(c2ccc(N3CCOCC3)c(F)c2)C(=O)O1 [linezolid]
Conditions	AUC25, [4]	Einf, [1]	GRinf, [2]	total FIC50, [5]	total FIC90, [3]
in vitro model: acidic pH 5.7, time point: constant (~7 days, model-specific)	0.105	0.811	-0.393	0.0935	–
in vitro model: acidic pH 5.7, time point: terminal (~4-5 doublings, model-specific)	0.0957	0.963	-0.297	0.906	0.401
in vitro model: intracellular J774, time point: constant = terminal	–	1	-0.815	–	0.836

Conditions	AUC25, [4]	Einf, [1]	GRinf, [2]	total FIC50, [5]	total FIC90, [3]
in vitro model: butyrate, time point: constant (~7 days, model-specific)	0.11	0.96	-0.165	0.534	–
in vitro model: butyrate, time point: terminal (~4-5 doublings, model-specific)	0.0792	0.977	-0.123	0.703	0.483
in vitro model: cholesterol 0.05 mM, time point: constant (~7 days, model-specific)	0.148	0.746	-0.203	–	–
in vitro model: cholesterol 0.05 mM, time point: terminal (~4-5 doublings, model-specific)	0.165	0.917	-0.514	-0.786	–
in vitro model: cholesterol-high 0.2 mM, time point: constant (~7 days, model-specific)	0.129	0.925	-1	0.0764	–
in vitro model: cholesterol-high 0.2 mM, time point: terminal (~4-5 doublings, model-specific)	0.125	1	-0.967	-0.259	0.74
in vitro model: dormancy (butyrate + nitrate, low O2), time point: constant (~7 days, model-specific)	0.0953	0.783	0.496	0.231	–
in vitro model: dormancy (butyrate + nitrate, low O2), time point: terminal (~4-5 doublings, model-specific)	0.0972	0.963	-0.701	0.197	0.279
in vitro model: standard 7H9 glycerol, time point: constant = terminal	0.122	0.949	-0.0541	0.243	–
in vitro model: valerate, time point: constant (~7 days, model-specific)	0.11	0.869	-0.282	0.664	–
in vitro model: valerate, time point: terminal (~4-5 doublings, model-specific)	0.0648	0.881	-0.0657	0.302	-0.133

CC(C)/N=c1\cc2n(-c3ccc(Cl)cc3)c3ccccc3nc-2cc1Nc1ccc(Cl)cc1 [clofazimine] + CC[C@@H](CO)NCCN[C@@H](CC)CO [ethambutol] + CO[C@H]1/C=C/O[C@@]2(C)Oc3c(C)c(O)c4c(O)c(c(/C=N/N5CCN(C6CCCC6)CC5)c(O)c4c3C2=O)NC(=O)/C(C)=C\C=C\[C@H](C)[C@H](O)[C@@H](C)[C@@H](O)[C@@H](C)[C@H](OC(C)=O)[C@@H]1C [rifapentine]
Conditions	AUC25, [4]	Einf, [1]	GRinf, [2]	total FIC50, [5]	total FIC90, [3]
in vitro model: acidic pH 5.7, time point: constant (~7 days, model-specific)	0.0945	0.877	-0.109	0.153	–
in vitro model: acidic pH 5.7, time point: terminal (~4-5 doublings, model-specific)	0.0736	0.978	-0.14	0.358	0.125
in vitro model: intracellular J774, time point: constant = terminal	–	0.973	-0.172	–	-1.79

Conditions	AUC25, [4]	Einf, [1]	GRinf, [2]	total FIC50, [5]	total FIC90, [3]
in vitro model: butyrate, time point: constant (~7 days, model-specific)	0.083	0.942	-0.0595	0.37	–
in vitro model: butyrate, time point: terminal (~4-5 doublings, model-specific)	0.0656	0.972	-0.043	0.422	-0.0851
in vitro model: cholesterol 0.05 mM, time point: constant (~7 days, model-specific)	0.111	0.703	-0.0332	–	–
in vitro model: cholesterol 0.05 mM, time point: terminal (~4-5 doublings, model-specific)	0.0974	0.871	-0.122	1.66	–
in vitro model: cholesterol-high 0.2 mM, time point: constant (~7 days, model-specific)	0.0285	0.928	-0.371	1.18	–
in vitro model: cholesterol-high 0.2 mM, time point: terminal (~4-5 doublings, model-specific)	0.0668	1	-0.81	1.37	1.24
in vitro model: dormancy (butyrate + nitrate, low O2), time point: constant (~7 days, model-specific)	0.105	0.823	0.414	-0.127	–
in vitro model: dormancy (butyrate + nitrate, low O2), time point: terminal (~4-5 doublings, model-specific)	0.128	0.99	-0.336	0.0752	0.891
in vitro model: standard 7H9 glycerol, time point: constant = terminal	0.105	0.92	0.0206	-0.0963	–
in vitro model: valerate, time point: constant (~7 days, model-specific)	0.126	0.889	0.017	1.07	–
in vitro model: valerate, time point: terminal (~4-5 doublings, model-specific)	0.0898	0.925	0.0199	0.462	0.841

CC(C)/N=c1\cc2n(-c3ccc(Cl)cc3)c3ccccc3nc-2cc1Nc1ccc(Cl)cc1 [clofazimine] + CC[C@@H](CO)NCCN[C@@H](CC)CO [ethambutol] + CO[C@H]1/C=C/O[C@@]2(C)Oc3c(C)c(O)c4c(O)c(c(/C=N/N5CCN(C)CC5)c(O)c4c3C2=O)NC(=O)/C(C)=C\C=C\[C@H](C)[C@H](O)[C@@H](C)[C@@H](O)[C@@H](C)[C@H](OC(C)=O)[C@@H]1C [rifampicin]
Conditions	AUC25, [4]	Einf, [1]	GRinf, [2]	total FIC50, [5]	total FIC90, [3]
in vitro model: acidic pH 5.7, time point: constant (~7 days, model-specific)	0.0857	0.88	-0.0788	-0.0594	–
in vitro model: acidic pH 5.7, time point: terminal (~4-5 doublings, model-specific)	0.0645	0.973	-0.112	0.213	-0.308
in vitro model: intracellular J774, time point: constant = terminal	–	0.969	-0.295	–	-2.37

Conditions	AUC25, [4]	Einf, [1]	GRinf, [2]	total FIC50, [5]	total FIC90, [3]
in vitro model: butyrate, time point: constant (~7 days, model-specific)	0.0971	0.95	-0.114	0.276	–
in vitro model: butyrate, time point: terminal (~4-5 doublings, model-specific)	0.1	0.982	-0.114	0.306	0.441
in vitro model: cholesterol 0.05 mM, time point: constant (~7 days, model-specific)	0.126	0.684	-0.277	–	–
in vitro model: cholesterol 0.05 mM, time point: terminal (~4-5 doublings, model-specific)	0.0974	0.785	0.17	2.31	–
in vitro model: cholesterol-high 0.2 mM, time point: constant (~7 days, model-specific)	0.0508	0.93	-0.277	0.891	–
in vitro model: cholesterol-high 0.2 mM, time point: terminal (~4-5 doublings, model-specific)	0.0801	1	-0.923	1.24	1.32
in vitro model: dormancy (butyrate + nitrate, low O2), time point: constant (~7 days, model-specific)	0.0958	0.828	0.515	0.137	–
in vitro model: dormancy (butyrate + nitrate, low O2), time point: terminal (~4-5 doublings, model-specific)	0.0873	0.991	-0.158	0.0335	-0.232
in vitro model: standard 7H9 glycerol, time point: constant = terminal	0.0958	0.922	0.048	-0.0461	–
in vitro model: valerate, time point: constant (~7 days, model-specific)	0.0993	0.858	0.045	0.749	–
in vitro model: valerate, time point: terminal (~4-5 doublings, model-specific)	0.0696	0.929	0.036	0.485	-0.638

CC(C)/N=c1\cc2n(-c3ccc(Cl)cc3)c3ccccc3nc-2cc1Nc1ccc(Cl)cc1 [clofazimine] + CC[C@@H](CO)NCCN[C@@H](CC)CO [ethambutol] + COc1c(N2C[C@@H]3CCCN[C@@H]3C2)c(F)cc2c(=O)c(C(=O)O)cn(C3CC3)c12 [moxifloxacin]
Conditions	AUC25, [4]	Einf, [1]	GRinf, [2]	total FIC50, [5]	total FIC90, [3]
in vitro model: acidic pH 5.7, time point: constant (~7 days, model-specific)	0.115	0.672	-0.00432	1.25	–
in vitro model: acidic pH 5.7, time point: terminal (~4-5 doublings, model-specific)	0.0596	0.925	-0.127	0.64	-0.564
in vitro model: intracellular J774, time point: constant = terminal	–	0.966	-0.457	–	-0.92

Conditions	AUC25, [4]	Einf, [1]	GRinf, [2]	total FIC50, [5]	total FIC90, [3]
in vitro model: butyrate, time point: constant (~7 days, model-specific)	0.11	0.96	-0.103	0.505	–
in vitro model: butyrate, time point: terminal (~4-5 doublings, model-specific)	0.0834	0.979	-0.104	0.581	0.553
in vitro model: cholesterol 0.05 mM, time point: constant (~7 days, model-specific)	0.123	0.651	-0.615	–	–
in vitro model: cholesterol 0.05 mM, time point: terminal (~4-5 doublings, model-specific)	0.117	0.885	-0.144	1.19	–
in vitro model: cholesterol-high 0.2 mM, time point: constant (~7 days, model-specific)	0.0933	0.95	-0.699	0.429	–
in vitro model: cholesterol-high 0.2 mM, time point: terminal (~4-5 doublings, model-specific)	0.0951	1	-0.973	0.534	0.957
in vitro model: dormancy (butyrate + nitrate, low O2), time point: constant (~7 days, model-specific)	0.0862	0.817	0.451	0.137	–
in vitro model: dormancy (butyrate + nitrate, low O2), time point: terminal (~4-5 doublings, model-specific)	0.113	0.977	-0.415	0.0118	0.798
in vitro model: standard 7H9 glycerol, time point: constant = terminal	0.0915	0.971	-0.184	0.258	0.732
in vitro model: valerate, time point: constant (~7 days, model-specific)	0.132	0.864	-0.0325	0.987	–
in vitro model: valerate, time point: terminal (~4-5 doublings, model-specific)	0.0712	0.903	0.0757	0.489	-1.39
